Source: ChEMBL document CHEMBL1201862, “PubChem BioAssay data set” (2004)
The source made the active and inactive calls.

Columns and labels:
[1] = Luminescence Cell-Based Dose Response to Identify Activators of 5'UTR Stem-Loop Driven Prion Protein mRNA Translation in H4-C Neuroglioblastoma Cells. [Related pubchem assays: 1829 (Project Summary), 1814 (Primary HTS)]; assay type: functional
[2] = Luminescence Cell-Based Dose Confirmation HTS to Identify Activators of 5'UTR Stem-Loop Driven Alpha-Synuclein mRNA Translation in H4 Neuroglioblastoma Cells. [Related pubchem assays: 1829 (Project Summary), 1814 (Primary HTS)]; assay type: functional
[3] = Luminescence Cell-Based Dose Response HTS to Identify Activators of Luciferase Translation or Activity in H4 […] Cells. [Related pubchem assays: 1829 (Project Summary), 1814 (Primary HTS)]; assay type: functional
H4 = assay: Luminescence Cell-Based Dose Response HTS to Identify Activators of 5'UTR Stem-Loop Driven Prion Protein mRNA Translation in H4 Neuroglioblastoma Cells. [Related pubchem assays: 1829 (Project Summary), 1814 (Primary HTS)]; assay type: functional; settings: Homo sapiens
[4] = Luminescence Cell-Based Dose Response to Identify Activators of Luciferase Translation or Activity in H4-C Neuroglioblastoma Cells. [Related pubchem assays: 1829 (Project Summary), 1814 (Primary HTS)]; assay type: functional
[5] = Luminescence Cell-Based Dose Confirmation to Identify Activators of 5'UTR Stem-Loop Driven Alpha-Synuclein mRNA Translation in H4 Neuroglioblastoma Cells. [Related pubchem assays: 1829 (Project Summary), 1814 (Primary HTS)]; assay type: functional
[6] = Luminescence-based dose response cell-based high throughput screening assay for cytotoxic compounds using the IEC-6 intestinal epithelial cell line. [Related pubchem assays: 1858 (Summary AID.), 1825 (Counterscreen.), 1907 (Confirmation screen.)]; assay type: functional
[7] = HEK-293T cell viability reduction – luminescence, B-cell screen hits, cytotoxicity control for BCR NF-kB inhibitor project, dose response (AID 489021); assay type: functional, cell-based;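 further: HEK-293T cells carrying an NF-kB luciferase reporter; cells exposed to compound for about 14 hours before viability readout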
[8] = molecular target: Heat shock protein HSP 90-alpha (Homo sapiens, UniProt P07900); assay: Luminescence-based dose response biochemical high throughput screening assay for inhibitors of the Heat Shock Protein 90 (HSP90). [Related pubchem assays: 1831 (Summary AID.), 1846 (Confirmation screen.), 1789 (Primary screen.)]
Estrogen receptor beta = Estrogen receptor beta (Homo sapiens, UniProt Q92731);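 further: recombinant ER-beta bound to coactivator SRC1 peptide in presence of estradiol agonist; inhibitors block coactivator peptide binding and lower the FRET signal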
Large T antigen = Large T antigen (Simian virus 40, UniProt P03070); assay type: functional, Betapolyomavirus macacae;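 further: Confirmatory-stage PubChem screen for compounds that inhibit SV40 T antigen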
Hexokinase HKDC1 = molecular target: T1, Hexokinase HKDC1 (Homo sapiens, UniProt Q2TB90); assay: inhibition of HKDC1 glucose phosphorylation – biochemical, W721R variant, dose response (AID 504729); assay type: functional
T1 sequence (Q2TB90 whole entry): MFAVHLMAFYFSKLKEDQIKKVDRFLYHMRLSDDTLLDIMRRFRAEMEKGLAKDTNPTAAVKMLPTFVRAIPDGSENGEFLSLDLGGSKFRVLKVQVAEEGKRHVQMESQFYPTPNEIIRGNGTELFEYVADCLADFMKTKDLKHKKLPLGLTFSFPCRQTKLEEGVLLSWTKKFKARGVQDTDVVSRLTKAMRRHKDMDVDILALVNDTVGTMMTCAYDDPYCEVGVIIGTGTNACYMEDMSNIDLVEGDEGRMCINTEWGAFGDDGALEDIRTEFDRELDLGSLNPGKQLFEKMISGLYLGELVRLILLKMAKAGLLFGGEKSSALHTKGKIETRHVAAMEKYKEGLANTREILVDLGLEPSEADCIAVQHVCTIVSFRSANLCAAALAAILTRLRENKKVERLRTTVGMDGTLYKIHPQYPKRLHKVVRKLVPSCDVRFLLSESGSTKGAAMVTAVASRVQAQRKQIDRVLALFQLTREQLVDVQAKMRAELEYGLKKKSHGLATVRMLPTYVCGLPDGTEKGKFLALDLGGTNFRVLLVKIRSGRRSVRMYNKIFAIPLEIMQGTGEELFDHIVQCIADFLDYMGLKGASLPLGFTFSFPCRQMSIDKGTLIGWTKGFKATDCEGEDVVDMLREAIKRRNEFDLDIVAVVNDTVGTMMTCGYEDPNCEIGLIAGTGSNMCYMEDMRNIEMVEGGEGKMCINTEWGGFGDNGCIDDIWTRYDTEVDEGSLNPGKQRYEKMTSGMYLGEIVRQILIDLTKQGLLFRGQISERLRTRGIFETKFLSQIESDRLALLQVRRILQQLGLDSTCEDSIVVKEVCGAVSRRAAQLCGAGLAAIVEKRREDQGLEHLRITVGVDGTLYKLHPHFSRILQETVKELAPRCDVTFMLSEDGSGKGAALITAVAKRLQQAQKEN

Vero = assay: viability of Vero cells under compound – cytotoxicity control for flavivirus capping enzyme inhibitors (AID 588742); assay type: functional; settings: Chlorocebus sabaeus
Genome polyprotein = Genome polyprotein (dengue virus type 2, UniProt P29990); assay: flavivirus cap methylation enzyme inhibition – biochemical, confirmation dose response, primary screen (AID 588689); assay type: functional
[9] = molecular target: T2, Tyrosyl-DNA phosphodiesterase 2 (Homo sapiens, UniProt O95551); assay: potency against TDP2 phosphodiesterase activity – biochemical, epi absorbance, IC50, dose response (AID 743297)
T2 sequence (O95551 whole entry): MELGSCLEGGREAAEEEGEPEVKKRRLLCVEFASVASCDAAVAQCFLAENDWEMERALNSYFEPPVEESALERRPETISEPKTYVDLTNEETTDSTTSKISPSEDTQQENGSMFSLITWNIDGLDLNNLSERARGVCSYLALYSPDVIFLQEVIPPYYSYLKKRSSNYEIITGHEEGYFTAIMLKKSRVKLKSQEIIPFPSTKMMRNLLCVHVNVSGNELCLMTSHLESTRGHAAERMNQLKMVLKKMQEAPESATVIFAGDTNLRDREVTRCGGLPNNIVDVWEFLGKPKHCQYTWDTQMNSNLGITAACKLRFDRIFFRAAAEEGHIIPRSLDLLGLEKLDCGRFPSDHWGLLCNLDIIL

[10] = viability loss in Vero cells – cytotoxicity control for Vif-APOBEC3G degradation inhibitor project, dose response (AID 1117358); assay type: functional; settings: Vero
[11] = Luminescent dose response cell-based high throughput screening assay for inhibitors of the Janus kinase 2 mutant JAK2V617F. [Related pubchem assays: 1446 (Primary screen.), 1521 (Confirmation assay.), 1486 (Counter screen.)]; assay type: functional
Protein Tat = molecular target: T3, Protein Tat (Human immunodeficiency virus type 1 group M subtype B (isolate HXB2)(HIV-1), UniProt P04608); assay type: functional;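 further: tat binding to TAR RNA read out by fluorescence polarization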
T3 sequence (P04608 whole entry): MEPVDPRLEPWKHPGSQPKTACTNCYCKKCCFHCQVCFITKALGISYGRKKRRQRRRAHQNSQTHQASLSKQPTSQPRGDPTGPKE

Paired box protein Pax-8 = Paired box protein Pax-8 (Homo sapiens, UniProt Q06710); assay: PAX8 transcriptional activity inhibition in RMG-I – RMG-I cells, luciferase, cherry-pick, dose response (AID 687027); assay type: functional, cell-based;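 further: luciferase reporter driven by Pax8 target thyroperoxidase promoter measured by SteadyGlo luminescence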
[12] = toxicity toward immortalized ovarian surface epithelium – cell-based, plate reader, dry powder samples, cytotoxicity control for PAX8 inhibitor project, dose response (AID 743045); assay type: functional
[13] = reduced cellular PGC1a acetyl-lysine signal – cell-based, cherry-picked samples, dose response (AID 720514); assay type: functional;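 further: potency may reflect raised or lowered acetylation signal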
[14] = OVCAR-3 cell viability loss – plate reader, dry powder samples, PAX8 inhibitor project, dose response (AID 743044); assay type: functional, cell-based
[15] = IGROV1 cell killing – plate reader, dry powder samples, PAX8 inhibitor project, dose response (AID 743043); assay type: functional, cell-based; settings: IGROV-1
[16] = OVCAR8 cell viability loss – plate reader, dry powder samples, PAX8 project, dose response (AID 743197); assay type: functional, cell-based; settings: OVCAR-8

Sequence of Large T antigen (P03070 whole entry): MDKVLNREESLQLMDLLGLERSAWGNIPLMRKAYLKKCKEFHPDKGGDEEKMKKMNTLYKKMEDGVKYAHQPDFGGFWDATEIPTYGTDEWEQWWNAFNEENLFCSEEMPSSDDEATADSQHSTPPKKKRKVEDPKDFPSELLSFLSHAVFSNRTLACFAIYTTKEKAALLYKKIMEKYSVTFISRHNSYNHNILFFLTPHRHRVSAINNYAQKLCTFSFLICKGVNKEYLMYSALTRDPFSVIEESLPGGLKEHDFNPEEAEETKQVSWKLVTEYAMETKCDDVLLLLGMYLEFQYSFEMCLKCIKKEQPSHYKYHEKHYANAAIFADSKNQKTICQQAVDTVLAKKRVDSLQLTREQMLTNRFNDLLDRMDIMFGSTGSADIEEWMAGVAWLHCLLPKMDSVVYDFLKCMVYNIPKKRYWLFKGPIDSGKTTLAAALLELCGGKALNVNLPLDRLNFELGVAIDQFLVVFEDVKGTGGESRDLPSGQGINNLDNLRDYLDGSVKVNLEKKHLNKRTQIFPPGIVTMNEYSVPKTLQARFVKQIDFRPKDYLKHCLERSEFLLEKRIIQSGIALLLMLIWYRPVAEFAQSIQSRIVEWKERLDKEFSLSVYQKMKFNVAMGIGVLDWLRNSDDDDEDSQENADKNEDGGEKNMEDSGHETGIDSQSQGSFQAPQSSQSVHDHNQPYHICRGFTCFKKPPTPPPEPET
Sequence of Paired box protein Pax-8 (Q06710 whole entry): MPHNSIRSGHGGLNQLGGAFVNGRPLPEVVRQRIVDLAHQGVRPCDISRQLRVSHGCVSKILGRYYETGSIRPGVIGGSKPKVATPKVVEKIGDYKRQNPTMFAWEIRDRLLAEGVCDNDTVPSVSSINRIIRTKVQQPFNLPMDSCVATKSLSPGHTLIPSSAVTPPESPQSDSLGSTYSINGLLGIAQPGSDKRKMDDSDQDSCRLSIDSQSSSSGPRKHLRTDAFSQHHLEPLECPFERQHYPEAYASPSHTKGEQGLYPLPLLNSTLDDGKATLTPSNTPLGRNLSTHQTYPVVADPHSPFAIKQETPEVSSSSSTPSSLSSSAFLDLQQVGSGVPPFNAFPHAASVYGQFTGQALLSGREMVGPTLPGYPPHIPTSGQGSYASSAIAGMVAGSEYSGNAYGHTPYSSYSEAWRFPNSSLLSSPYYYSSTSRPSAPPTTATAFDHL
Sequence of Estrogen receptor beta (Q92731 whole entry): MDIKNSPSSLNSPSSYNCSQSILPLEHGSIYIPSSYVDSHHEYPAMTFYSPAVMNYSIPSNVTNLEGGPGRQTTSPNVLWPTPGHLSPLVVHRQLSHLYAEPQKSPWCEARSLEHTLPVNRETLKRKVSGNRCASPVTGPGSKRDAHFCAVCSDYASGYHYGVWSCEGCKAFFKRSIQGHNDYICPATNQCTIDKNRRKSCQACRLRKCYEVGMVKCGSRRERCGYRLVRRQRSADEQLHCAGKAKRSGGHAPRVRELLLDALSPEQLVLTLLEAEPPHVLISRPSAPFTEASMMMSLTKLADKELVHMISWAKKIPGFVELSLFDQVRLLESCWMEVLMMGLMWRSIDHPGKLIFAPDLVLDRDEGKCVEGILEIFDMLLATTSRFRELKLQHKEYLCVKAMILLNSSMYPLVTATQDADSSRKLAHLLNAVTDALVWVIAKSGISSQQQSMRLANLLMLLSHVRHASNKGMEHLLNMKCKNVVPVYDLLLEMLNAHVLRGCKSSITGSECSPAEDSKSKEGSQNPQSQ
Sequence of Genome polyprotein (P29990 2492-3391 limits assumed): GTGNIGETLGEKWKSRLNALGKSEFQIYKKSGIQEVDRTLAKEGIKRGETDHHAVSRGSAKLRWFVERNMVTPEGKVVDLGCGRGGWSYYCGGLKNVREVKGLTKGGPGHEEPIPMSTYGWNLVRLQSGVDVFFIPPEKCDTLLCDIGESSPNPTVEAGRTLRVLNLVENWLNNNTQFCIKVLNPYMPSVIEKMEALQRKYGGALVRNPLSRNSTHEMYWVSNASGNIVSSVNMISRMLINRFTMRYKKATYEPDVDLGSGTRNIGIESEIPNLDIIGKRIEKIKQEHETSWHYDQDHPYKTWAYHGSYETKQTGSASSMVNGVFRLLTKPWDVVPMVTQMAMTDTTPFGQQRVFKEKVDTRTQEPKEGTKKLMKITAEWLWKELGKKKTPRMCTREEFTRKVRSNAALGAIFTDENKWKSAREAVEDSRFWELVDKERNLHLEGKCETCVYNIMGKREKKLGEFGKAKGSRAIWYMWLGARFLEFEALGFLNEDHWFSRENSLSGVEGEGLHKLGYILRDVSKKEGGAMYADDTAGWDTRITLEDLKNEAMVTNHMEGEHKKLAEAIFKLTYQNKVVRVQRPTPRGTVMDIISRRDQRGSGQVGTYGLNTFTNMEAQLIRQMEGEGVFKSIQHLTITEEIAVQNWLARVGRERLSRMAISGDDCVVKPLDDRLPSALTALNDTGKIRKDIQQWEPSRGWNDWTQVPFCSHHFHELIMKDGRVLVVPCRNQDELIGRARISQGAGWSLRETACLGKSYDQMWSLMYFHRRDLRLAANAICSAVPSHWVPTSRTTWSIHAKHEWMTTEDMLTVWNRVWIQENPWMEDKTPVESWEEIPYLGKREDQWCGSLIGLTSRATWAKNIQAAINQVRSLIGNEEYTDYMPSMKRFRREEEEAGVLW

In the case of `COc1ccc(C(=O)Nc2cnc3ccccn3c2=O)cc1`, the EC50 [1] is reported as 0.755 µM (active), the EC50 [2] is reported as 129 nM (active) and the EC50 [3] is reported as < 100 nM (active). For the same molecule, the EC50 (H4) was 38.8 µM (active), the EC50 [4] was 530 nM (active) and the EC50 [5] was 360 nM (active).

With `Cc1ccc(Nc2nc(N3CCOCC3)nc(N3CCOCC3)n2)cc1C` the IC50 [6] was 1.47 µM (active) and the IC50 [7] was > 80 µM (inactive).

In the case of `COC(=O)c1ccccc1OCCCOc1ccc(C)cc1OC`, the IC50 [8] is reported as 4.05 nM (active).

In the case of `Cc1occc1C(=O)NCCCc1ccccc1`, the IC50 (Estrogen receptor beta) is reported as > 50 µM (not active).

For `Cc1cccc(-n2c3nc(=O)[nH]c(=O)c-3cc3cc([N+](=O)[O-])ccc32)c1`, the IC50 (Large T antigen) was > 100 µM (active), the IC50 (Hexokinase HKDC1) was 10.4 µM (active) and the CC50 (Vero) was 24.8 µM (active). The IC50 (Genome polyprotein) was 32.7 µM (active) and the IC50 [9] was > 128 µM (inactive).

In the case of `CC(C)c1ccc(/C=C/C(=O)N2CCc3ccccc3C2)cc1`, the CC50 [10] is reported as > 40 µM (active).

For `Cc1nn(Cc2ccccc2)c(Cl)c1C(=O)NCCc1ccccc1`, the EC50 [1] was 1.07 µM (active), the EC50 [2] was < 100 nM (active) and the EC50 [3] was < 100 nM (active). The EC50 [4] was 367 nM (active) and the EC50 [5] was 240 nM (active).

In the case of `Cc1ccc[n+](-c2[n-]c(=O)sc2C=NNC(=O)c2ccccc2O)c1`, the CC50 [10] is reported as > 40 µM (active).

In the case of `CC(C)(C)c1ccc(C(=O)CSc2nc[nH]n2)cc1`, the EC50 [1] is reported as 1.13 µM (active), the EC50 [2] is reported as 3340 nM (active) and the EC50 [3] is reported as 88100 nM (active). The EC50 (H4) was 0.127 µM (active), the EC50 [4] was 1090 nM (active) and the EC50 [5] was 580 nM (active).

In the case of `O=S(=O)(c1cccs1)N1CCN(c2ccc(O)cc2)CC1`, the IC50 [11] is reported as 2.84 µM (active) and the IC50 (Large T antigen) is reported as 6.66 µM (active).

In the case of `COc1ccc(OC)c(C2C(C(=O)Nc3ccc(F)cc3)=C(C)Nc3nc(CCCO)nn32)c1` (stereo not given), the IC50 (Protein Tat) is reported as > 100 µM (active).

With `C#CCSc1nsc(SCC#C)c1C#N` the IC50 [11] was 1.1 µM (active).

For `Cc1noc(C)c1COC(=O)c1cccc(S(=O)(=O)N2CCCCCC2)c1`, the CC50 [10] was > 40 µM (active).

For `O=C(Nc1ccc(C(F)(F)F)cc1)N1C[C@@H]2N[C@H](C1)[C@H]2c1ccc(-c2ccccc2)cc1`, the AC50 (Paired box protein Pax-8) was 8.55 µM (active), the AC50 [12] was 49.8 µM (active) and the AC50 [13] was 5.12 µM (active). For the same molecule, the AC50 [14] was 17.7 µM (active), the AC50 [15] was 27.2 µM (active) and the AC50 [16] was 41 µM (active).

With `C[C@@H]1CCCCO[C@H](CN(C)C(=O)NC2CCCCC2)[C@@H](C)CN([C@@H](C)CO)C(=O)c2cc(NC(=O)NC3CCCCC3)ccc2O1` the AC50 [13] was 26 µM (active).
